Experimental data from paper PMC5065787 (Bioorganic & medicinal chemistry, 2016).
Substitutions are numbered along the chain they refer to. In names and notes the source's numbering stands.

Key:
rat LOX ortholog = conditions: cited from earlier work
dog LOX ortholog = conditions: cited from earlier work
[1] = cited from earlier work
h15-LOX-1 = conditions: cited from earlier work
h15-LOX-1 F414I = target: T1, h15-LOX-1 F414I (Homo sapiens, UniProt P16050, F414I); experiment: Steady-state substrate kinetics, F414I; format: biochemical; conditions: error in parentheses
T1 sequence (P16050 1-662 F414I): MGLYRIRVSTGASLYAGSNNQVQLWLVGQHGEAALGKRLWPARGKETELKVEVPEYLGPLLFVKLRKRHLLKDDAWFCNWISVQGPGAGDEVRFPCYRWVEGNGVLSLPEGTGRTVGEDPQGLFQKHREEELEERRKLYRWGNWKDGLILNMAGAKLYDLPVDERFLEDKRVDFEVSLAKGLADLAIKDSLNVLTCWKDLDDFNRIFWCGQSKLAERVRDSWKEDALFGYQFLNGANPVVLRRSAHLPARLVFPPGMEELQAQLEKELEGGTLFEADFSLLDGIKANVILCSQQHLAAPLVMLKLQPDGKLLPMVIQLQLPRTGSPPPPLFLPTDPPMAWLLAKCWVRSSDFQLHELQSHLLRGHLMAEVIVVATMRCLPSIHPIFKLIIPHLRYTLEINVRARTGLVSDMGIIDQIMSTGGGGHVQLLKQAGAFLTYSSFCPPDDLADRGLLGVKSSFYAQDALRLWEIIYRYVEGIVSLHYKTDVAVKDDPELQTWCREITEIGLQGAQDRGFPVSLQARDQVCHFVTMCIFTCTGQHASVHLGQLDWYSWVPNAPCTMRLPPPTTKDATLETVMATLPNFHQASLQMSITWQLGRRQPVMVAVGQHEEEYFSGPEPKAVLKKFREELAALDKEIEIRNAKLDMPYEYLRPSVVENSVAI

WT h15-LOX-1 = target: T2, WT h15-LOX-1 (Homo sapiens, UniProt P16050); experiment: Steady-state substrate kinetics, WT; format: biochemical; conditions: error in parentheses
T2 sequence (P16050 1-662): T1 sequence (P16050 1-662 F414I) with I414F

[2] = possibly due to cellular lability of the ester moiety; cited from earlier work
[3] = cited from earlier work; remark: listed apart in the source
[4] = substrate: CCCCC/C=C\C/C=C\C/C=C\C/C=C\CCCC(=O)O; experiment: Steady-state substrate kinetics, Q547L; format: biochemical, human; conditions: other: Q547L; error in parentheses; unit inferred; pH 7.5
[5] = substrate: CCCCC/C=C\C/C=C\C/C=C\C/C=C\CCCC(=O)O; experiment: Steady-state substrate kinetics, E356Q; format: biochemical, human; conditions: other: E356Q; error in parentheses; unit inferred; pH 7.5
[6] = substrate: CCCCC/C=C\C/C=C\C/C=C\C/C=C\CCCC(=O)O; experiment: Steady-state substrate kinetics, L407A; format: biochemical, human; conditions: other: L407A; error in parentheses; unit inferred; pH 7.5
[7] = substrate: CCCCC/C=C\C/C=C\C/C=C\C/C=C\CCCC(=O)O; experiment: Steady-state substrate kinetics, F414I; format: biochemical, human; conditions: other: F414I; error in parentheses; unit inferred; pH 7.5
[8] = substrate: CCCCC/C=C\C/C=C\C/C=C\C/C=C\CCCC(=O)O; experiment: Steady-state substrate kinetics, F414W; format: biochemical, human; conditions: other: F414W; error in parentheses; unit inferred; pH 7.5

For O=C(Nc1ccc(F)cc1Cl)c1c[nH]nn1 [BLX-2477, N-(2-chloro-4-fluorophenyl)triazole-4-carboxamide], the “potency against rat LOX ortholog” value (rat LOX ortholog) is listed as “not potent”, the “potency against dog LOX ortholog” value (dog LOX ortholog) is listed as “not potent” and the “adverse off-target effects in mini-pigs” value [1] is listed as “adverse off-target effects”. The “potency against h15-LOX-1” value (h15-LOX-1) was 99 nM.

In the case of CCCCC/C=C\C/C=C\CCCCCCCC(=O)O [LA, linoleic acid], the kcat (h15-LOX-1 F414I; no unit in table (sec^−1)) is reported as 1.6 (0.03), the Km (h15-LOX-1 F414I; unit inferred) is reported as 6.1 µM and the kcat (WT h15-LOX-1; no unit in table (sec^−1)) is reported as 11 (0.4). It also gave a Km (WT h15-LOX-1; substrate 1-20 µM, unit inferred) of 7.7 µM.

In the case of O=C(OCC#CCSc1nnc(-c2cccc3ccccc23)o1)c1cccs1 [ML094, 4-(5-(Naphthalen-1-yl)-1,3,4-oxadiazol-2-ylthio)but-2-ynylthiophene-2-carboxylate], the activity in vivo [2] is listed as “no activity”.

In the case of CNc1oc(-c2cccc3ccccc23)nc1C#N [ML351, 5-(methylamino)-2-(naphthalene-1-yl)oxazole-4-carbonitrile], the “in vivo activity in mice” value [3] is given as “exhibits in vivo activity”.

For CCCCCc1ccc(S(=O)(=O)NCCc2c(-c3ccc(C(F)(F)F)cc3)[nH]c3ccccc23)cc1 [tryptamine sulfonamide], the “potency against h15-LOX-1” value (h15-LOX-1) is given as 21 nM.

B1: h15-LOX-1 Q547L (Homo sapiens; Q547L) (protein)
chain: T1 sequence (P16050 1-662 F414I) with I414F, Q547L
In the case of B1, the Km [4] is reported as 11 µM.

B2: h15-LOX-1 E356Q (Homo sapiens; E356Q) (protein)
chain: T1 sequence (P16050 1-662 F414I) with E356Q, I414F
For B2, the Km [5] was 4.1 µM.

B3: h15-LOX-1 L407A (Homo sapiens; L407A) (protein)
chain: T1 sequence (P16050 1-662 F414I) with L407A, I414F
Work on B3 yielded a Km [6] of 5.5 µM.

B4: h15-LOX-1 F414I (Homo sapiens; F414I) (protein)
chain: T1 sequence (P16050 1-662 F414I)
With B4 the Km [7] was 11 µM.

B5: h15-LOX-1 F414W (Homo sapiens; F414W) (protein)
chain: T1 sequence (P16050 1-662 F414I) with I414W
In the case of B5, the Km [8] is reported as 6.5 µM.
